Data published in patent US11912697B1, “1,3-benzothiazol-2-yl-N′-[(pyridine-3-carbonyl)oxy]ethanimidamide as an antitumor and antimicrobial compound” (King Faisal University, priority 2023, dated 2024).

Experiments:
[1] = test system: human prostate cancer cells (PC3); assay: Cytotoxicity by SRB assay, PC3 cells; format: cell-based; details: PC-3 cells; for IC50: mean ± SD
Method: (§1) The human prostate cancer cells (PC3) and human osteosarcoma cells (MG-63) were obtained from Nawah Scientific Inc. (Mokatam, Cairo, Egypt) and cultured in DMEM (Dulbecco's modified eagle's medium), Gibco, USA, supplemented with fetal bovine serum (FBS) at a concentration of 10% and 100 U/mL of penicillin and streptomycin (PS). The Cells were incubated at 37° C. in a humidified environment that contained 5% CO2.
(§2) Cells were seeded in 96-well plates as aliquots of 100 μL cell suspension and incubated in a complete media for 24 h. Afterward, cells were treated with N′-[(2-chlorobenzoyl)oxy]-1,3-benzothiazole-2-carboximidamide at diverse concentrations ranging from 0.01 μM to 100 μM for 72 h. Then, cells were fixed at 4° C. for one hour with 150 μL of 10% trichloroacetic acid (TCA). After washing the cells five times with distilled water, 70 μL of sulforhodamine (SRB) solution (0.4% w/v) was added and incubated for 10 min at room temperature in a dark place. Cells were washed with 1% acetic acid three times and allowed to air-dry. Then, 150 μL of Tris pH 10.5 (10 mM) was added, and the absorbance was measured at 540 nm using a BMG LABTECH®-FLUOstar Omega microplate reader (Ortenberg, Germany). Half maximal inhibitory concentrations (IC50) values were calculated for each experiment using GraphPad Prism 6 software. IC50 values were reported as mean […] SD.
(§3) The inhibition was calculated using the following equation: Inhibition %=100−Average Viability

[2] = test system: human osteosarcoma cells (MG-63); assay: Cytotoxicity by SRB assay, MG-63 cells; format: cell-based; details: for IC50: mean ± SD
Method: as §1, §2, §3

[3] = test system: Bacillus cereus, Staphylococcus aureus, Pseudomonas aeruginosa, Escherichia coli, Aspergillus flavus, Chrysosporium keratinophilum; assay: Agar plate disc-diffusion antimicrobial screen; format: cell-based; details: 10 μL of 10 mg/mL in DMSO per disc, result in words only
Method: The agar plate disc-diffusion method was applied. Sterilized filter papers (6 mm in diameter) were wetted with 10 μL of a solution of each compound to be tested, containing 10 mg/mL in DMSO, and the discs were allowed to air dry. The discs were then placed onto the surface of agar plates (nutrient agar for bacteria and Sabouraud's dextrose agar for fungi) and seeded with the test organism. Each plate contained 15 mL of the agar medium, previously seeded with 0.2 mL of the broth culture of each organism pre-grown for 18 h. The plates were incubated at 37° C. for 48 h, and 72 h for fungi. The inhibition zones were measured in mm. Discs impregnated with DMSO were used as a control, and its inhibition zone was subtracted from the tested compound actual inhibition zone.
In particular, the present 1,3-benzothiazol-2-yl-N′-[(pyridine-3-carbonyl)oxy]ethanimidamide was screened against gram positive bacteria, namely Bacillus cereus and Staphylococcus aureus, and gram-negative bacterial strains, namely Pseudomonas aeruginosa and Escherichia coli, while the antifungal activity was screened against Aspergillus flavus and Chrysosporium keratinophilum.

## COc1cccc2c1C(=O)c1c(O)c3c(c(O)c1C2=O)C[C@@](O)(C(=O)CO)C[C@@H]3O[C@H]1C[C@H](N)[C@H](O)[C@H](C)O1 [DOX, Doxorubicin, reference compound]
[1]; Homo sapiens, PC-3, 72 h
  IC50: 7.6 ± 0.45 µM
[2]; Homo sapiens, MG-63, 72 h
  IC50: 9.4 ± 1.1 µM

## NC(=NOC(=O)c1ccccc1Cl)c1nc2ccccc2s1 [N′-[(2-chlorobenzoyl)oxy]-1,3-benzothiazole-2-carboximidamide]
[3]
  antimicrobial activity: excellent antimicrobial activities

## N/C(Cc1nc2ccccc2s1)=N\OC(=O)c1cccnc1 [Present Compound, 1,3-benzothiazol-2-yl-N′-[(pyridine-3-carbonyl)oxy]ethanimidamide]
other
  melting point: 150 to 152 °C
[1]; 10 μg/ml, 72 h
  Prostate Cancer (PC-3) Inhibition %: 96.21%
[1]; Homo sapiens, PC-3, 72 h, 10 μg/ml
  inhibition at 10 µg/mL: 96%
[1]; Homo sapiens, PC-3, 72 h, 100 μg/ml
  inhibition at 100 µg/mL: 97%
[1]; Homo sapiens, PC-3, 72 h
  IC50: < 4 µM
[1]; 72 h
  IC50: 2.71 ± 0.03 µM
[3]
  antimicrobial activity: high levels of antimicrobial activity
[2]; 72 h
  IC50: 3.59 ± 0.2 µM
[2]; Homo sapiens, 10 μg/ml, 72 h
  inhibition at 10 µg/mL: 91.2%
[2]; Homo sapiens, 100 μg/ml, 72 h
  inhibition at 100 µg/mL: 92.1%
[2]; Homo sapiens, MG-63, 72 h
  IC50: < 4 µM
